Patent US10294202B2, “Pyrrolidinones as herbicides” (FMC Corporation, priority 2013, dated 2019)

Assays:
[1] = test system: barnyardgrass; test: Test A pre-/postemergence herbicide test; type: in vivo, Echinochloa crus-galli
Outline: (§1)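 Visual injury ratings, 0 = no effect, 100 = complete control, taken ~10 days after treatment against untreated greenhouse controls. Preemergence: directed soil spray onto seeded loam/sand pots. Postemergence: spray onto plants at one- to two-leaf stage, 2–10 cm tall.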

[2] = test system: wheat; test: Test A pre-/postemergence herbicide test; type: in vivo, Triticum aestivum; conditions: Postemergence
Outline: as §1

[3] = test system: ragweed; test: Test A pre-/postemergence herbicide test; type: in vivo, Ambrosia elatior
Outline: as §1

[4] = test system: giant foxtail; test: Test A pre-/postemergence herbicide test; type: in vivo, Setaria faberii
Outline: as §1

[5] = test system: pigweed; test: Test A pre-/postemergence herbicide test; type: in vivo, Amaranthus retroflexus
Outline: as §1

[6] = test system: kochia; test: Test A pre-/postemergence herbicide test; type: in vivo, Kochia scoparia
Outline: as §1

[7] = test system: galium; test: Test A postemergence herbicide test; type: in vivo, Galium aparine
Outline: (§2)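 Young potted plants in a loam–sand mix, one- to two-leaf stage and 2–10 cm tall, receive the test chemical postemergence and stay in a greenhouse for approximately 10 days. Injury is then judged by eye against untreated plants, scored 0 (none) to 100 (complete control).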

[8] = test system: corn; test: Test A pre-/postemergence herbicide test; type: in vivo, Zea mays; conditions: Postemergence
Outline: as §1

[9] = test system: blackgrass; test: Test A postemergence herbicide test; type: in vivo, Alopecurus myosuroides
Outline: as §2

[10] = test system: ryegrass, Italian; test: Test A pre-/postemergence herbicide test; type: in vivo, Lolium multiflorum
Outline: as §1

[11] = Postemergence, 1000 g ai/ha, 0 to 100 scale (0 no effect, 100 complete control)
[12] = preemergence, 1000 g ai/ha, 0 to 100 scale (0 no effect, 100 complete control)
[13] = 1000 g ai/ha, 0 to 100 scale (0 no effect, 100 complete control)
[14] = preemergence, 1000 g ai/ha, 0 to 100 scale
[15] = 125 g ai/ha, visual rating, 0 to 100 scale, 0 no effect, 100 complete control, approximately 10 days, preemergence
[16] = Postemergence, 125 g ai/ha, 0 to 100 scale, 0 is no effect, 100 is complete control
[17] = preemergence, 500 g ai/ha, 0 to 100 scale, 0 is no effect and 100 is complete control
[18] = 125 g ai/ha, 0 to 100 scale, 0 is no effect, 100 is complete control

O=C1NCC(c2cccc(-c3ccccc3C(F)(F)F)c2)C1C(=O)Nc1ccccc1C(F)(F)F (stereo not shown) [Compound 237]
Plant response rating, Barnyardgrass [1, 11]: 20
Plant response rating, Barnyardgrass [1, 12]: 60
Plant response rating, Wheat [2, 13]: 0
Plant response rating, Ragweed [3, 11]: 0
Plant response rating, Ragweed [3, 14]: 0
Plant response rating, Foxtail, Giant [4, 11]: 0
Plant response rating, Foxtail, Giant [4, 14]: 80
Plant response rating, Pigweed [5, 11]: 0
Plant response rating, Pigweed [5, 14]: 0
Plant response rating, Kochia [6, 11]: 0
Plant response rating, Kochia [6, 14]: 0
Plant response rating, Galium [7, 13]: 0
Plant response rating, Corn [8, 13]: 0
Plant response rating, Blackgrass [9, 13]: 0
Plant response rating, Ryegrass, Italian [10, 11]: 0
Plant response rating, Ryegrass, Italian [10, 14]: 0

Cc1cccc(NC(=O)C2C(=O)NCC2c2cccc(C(F)(F)F)c2)c1F (racemic) [Compound 184]
Plant response rating, Barnyardgrass [1, 15]: 70
Plant response rating, Barnyardgrass [1, 16]: 70
Barnyardgrass plant response rating (0 to 100 scale, 0 is no effect, 100 is complete control) ([1]; Postemergence, 500 g ai/ha): 80
Plant response rating, Barnyardgrass [1, 17]: 90
Plant response rating, Wheat [2, 18]: 0
Wheat plant response rating (0 to 100 scale, 0 is no effect, 100 is complete control) ([2]; 500 g ai/ha): 40
Plant response rating, Ragweed [3, 15]: 0
Plant response rating, Ragweed [3, 16]: 0
Ragweed plant response rating (0 to 100 scale, 0 is no effect, 100 is complete control) ([3]; Postemergence, 500 g ai/ha): 0
Plant response rating, Ragweed [3, 17]: 0
Plant response rating, Foxtail, Giant [4, 15]: 90
Plant response rating, Foxtail, Giant [4, 16]: 70
Foxtail, Giant plant response rating (0 to 100 scale, 0 is no effect, 100 is complete control) ([4]; Postemergence, 500 g ai/ha): 80
Plant response rating, Foxtail, Giant [4, 17]: 90
Plant response rating, Pigweed [5, 15]: 0
Plant response rating, Pigweed [5, 16]: 0
Pigweed plant response rating (0 to 100 scale, 0 is no effect, 100 is complete control) ([5]; Postemergence, 500 g ai/ha): 0
Plant response rating, Pigweed [5, 17]: 0
Plant response rating, Kochia [6, 15]: 0
Plant response rating, Kochia [6, 16]: 0
Kochia plant response rating (0 to 100 scale, 0 is no effect, 100 is complete control) ([6]; Postemergence, 500 g ai/ha): 0
Plant response rating, Kochia [6, 17]: 20
Plant response rating, Galium [7, 18]: 0
Galium plant response rating (0 to 100 scale, 0 is no effect, 100 is complete control) ([7]; 500 g ai/ha): 20
Plant response rating, Corn [8, 18]: 0
Corn plant response rating (0 to 100 scale, 0 is no effect, 100 is complete control) ([8]; 500 g ai/ha): 20
Plant response rating, Blackgrass [9, 18]: 0
Blackgrass plant response rating (0 to 100 scale, 0 is no effect, 100 is complete control) ([9]; 500 g ai/ha): 20
Plant response rating, Ryegrass, Italian [10, 15]: 0
Plant response rating, Ryegrass, Italian [10, 16]: 0
Ryegrass, Italian plant response rating (0 to 100 scale, 0 is no effect, 100 is complete control) ([10]; Postemergence, 500 g ai/ha): 20
Plant response rating, Ryegrass, Italian [10, 17]: 0

O=C1NCC(c2cccc(-c3ccccc3F)c2)C1C(=O)Nc1ccccc1C(F)(F)F (stereo not shown) [Compound 238]
Plant response rating, Barnyardgrass [1, 11]: 30
Plant response rating, Barnyardgrass [1, 12]: 50
Plant response rating, Wheat [2, 13]: 0
Plant response rating, Ragweed [3, 11]: 0
Plant response rating, Ragweed [3, 14]: 0
Plant response rating, Foxtail, Giant [4, 11]: 30
Plant response rating, Foxtail, Giant [4, 14]: 90
Plant response rating, Pigweed [5, 11]: 0
Plant response rating, Pigweed [5, 14]: 0
Plant response rating, Kochia [6, 11]: 0
Plant response rating, Kochia [6, 14]: 0
Plant response rating, Galium [7, 13]: 20
Plant response rating, Corn [8, 13]: 0
Plant response rating, Blackgrass [9, 13]: 20
Plant response rating, Ryegrass, Italian [10, 11]: 0
Plant response rating, Ryegrass, Italian [10, 14]: 0
